Measured values as given in US8653263B2 (Janssen Pharmaceutica, priority 2009, dated 2014).

biological target: human orexin-2 receptor (Homo sapiens (Human), UniProt O43614); test: Human orexin 2 receptor radioligand binding ([3H]-EMPA competition); settings: HEK293 cells stably expressing human orexin-2 receptor; [3H]-EMPA 5 nM final; apparent Ki=IC50/(1+C/Kd), Kd=2 nM; read-out: OR 2 Ki
Sequence (O43614 whole entry): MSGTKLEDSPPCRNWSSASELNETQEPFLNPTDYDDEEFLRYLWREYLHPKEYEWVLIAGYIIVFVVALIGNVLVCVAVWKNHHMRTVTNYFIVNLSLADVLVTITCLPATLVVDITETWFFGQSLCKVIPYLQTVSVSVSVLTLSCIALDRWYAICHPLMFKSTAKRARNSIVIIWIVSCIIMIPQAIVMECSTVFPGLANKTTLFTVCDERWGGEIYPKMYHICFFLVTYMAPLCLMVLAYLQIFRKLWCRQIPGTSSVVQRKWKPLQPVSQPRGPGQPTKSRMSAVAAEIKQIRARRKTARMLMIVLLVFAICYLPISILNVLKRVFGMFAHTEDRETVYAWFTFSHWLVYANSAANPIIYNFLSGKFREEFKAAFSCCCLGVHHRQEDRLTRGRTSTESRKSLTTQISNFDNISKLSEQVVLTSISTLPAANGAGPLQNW

With `Cc1noc(-c2ccccc2C(=O)N2CC3CN(c4nc(C)c5c(n4)CCC5)CC3C2)n1` (stereo not shown) [Example 319, 4-Methyl-2-[5-{[2-(3-methyl-1,2,4-oxadiazol-5-yl)phenyl]carbonyl}hexahydropyrrolo[3,4-c]pyrrol-2(1H)-yl]-6,7-dihydro-5H-cyclopenta[d]pyrimidine] as the compound, how does the Ki read?
The Ki was 0.018 µM.

With `Cc1nc(N2CC3CN(C(=O)c4ccccc4-c4ncn(C)n4)CC3C2)nc(C)c1Cl` (stereo not shown) [Example 320, 2-(5-Chloro-4,6-dimethylpyrimidin-2-yl)-5-{[2-(1-methyl-1H-1,2,4-triazol-3-yl)phenyl]carbonyl}octahydropyrrolo[3,4-c]pyrrole] as the compound, how does the Ki read?
The Ki was 0.004 µM.

How did the Ki turn out when `CCc1c(C)nc(N2CC3CN(C(=O)c4ccccc4-c4ncn(C)n4)CC3C2)nc1C` (stereo not shown) [Example 322, 2-(5-Ethyl-4,6-dimethylpyrimidin-2-yl)-5-{[2-(1-methyl-1H-1,2,4-triazol-3-yl)phenyl]carbonyl}octahydropyrrolo[3,4-c]pyrrole] was run?
The Ki was 0.01 µM.

For `Cc1nc(N2CC3CN(C(=O)c4ncccc4-n4nccn4)CC3C2)nc(C)c1C` (stereo not shown) [Example 323, 2-{[3-(2H-1,2,3-Triazol-2-yl)pyridin-2-yl]carbonyl}-5-(4,5,6-trimethylpyrimidin-2-yl)octahydropyrrolo[3,4-c]pyrrole], which Ki is on record?
Its Ki is 0.025 µM.

`Cc1nc(N2CC3CN(C(=O)c4ncccc4-n4nccn4)CC3C2)nc(C)c1F` (stereo not shown) [Example 325, 2-(5-Fluoro-4,6-dimethylpyrimidin-2-yl)-5-{[3-(2H-1,2,3-triazol-2-yl)pyridin-2-yl]carbonyl}octahydropyrrolo[3,4-c]pyrrole] was tested. Which Ki did it give?
Its Ki is 0.016 µM.

For `Cc1cc(C)nc(N2CC3CN(C(=O)c4cccc5c4-c4ccccc4C5)CC3C2)n1` (stereo not shown) [Example 326, 2-(4,6-Dimethylpyrimidin-2-yl)-5-(9H-fluoren-4-ylcarbonyl)octahydropyrrolo[3,4-c]pyrrole], which Ki is on record?
The Ki was 0.008 µM.

For `Cc1cc(C)nc(N2CC3CN(C(=O)c4c(-n5nccn5)ccc5c4OCO5)CC3C2)n1` (stereo not shown) [Example 327, [5-(4,6-Dimethyl-pyrimidin-2-yl)-hexahydro-pyrrolo[3,4-c]pyrrol-2-yl]-(5-[1,2,3]triazol-2-yl-benzo[1,3]dioxol-4-yl)methanone], which Ki is on record?
Its Ki is 0.103 µM.

`Cc1cc(C)nc(N2CC3CN(C(=O)c4cccc5cccc(-n6nccn6)c45)CC3C2)n1` (stereo not shown) [Example 328, [5-(4,6-Dimethyl-pyrimidin-2-yl)-hexahydro-pyrrolo[3,4-c]pyrrol-2-yl]-(8-[1,2,3]triazol-2-yl-naphthalen-1-yl)-methanone] was tested. Which Ki did it give?
The Ki was 0.112 µM.

With `COc1ccc(C(C)(C)C)cc1C(=O)N1CC2CN(c3nc(C)cc(C)n3)CC2C1` (stereo not shown) [Example 330, (5-tert-Butyl-2-methoxy-phenyl)-[5-(4,6-dimethyl-pyrimidin-2-yl)-hexahydro-pyrrolo[3,4-c]pyrrol-2-yl]-methanone] as the compound, how does the Ki read?
Its Ki is 10 µM.

For `Cc1cc(C)nc(N2CC3CN(C(=O)c4cccc5c4OCCCO5)CC3C2)n1` (stereo not shown) [Example 334, (3,4-Dihydro-2H-benzo[b][1,4]dioxepin-6-yl)-[5-(4,6-dimethyl-pyrimidin-2-yl)-hexahydro-pyrrolo[3,4-c]pyrrol-2-yl]-methanone], which Ki is on record?
The Ki was 0.277 µM.

`Cc1cccc(-c2cc(F)ccc2C(=O)N2CC3CN(c4nc(C)cc(C)n4)CC3C2)n1` (stereo not shown) [Example 335, (5-(4,6-dimethylpyrimidin-2-yl)hexahydropyrrolo[3,4-c]pyrrol-2(1H)-yl)(4-fluoro-2-(6-methylpyridin-2-yl)phenyl)methanone] was tested. Which Ki did it give?
Its Ki is 0.059 µM.

`Cc1cc(C)nc(N2CC3CN(C(=O)c4ccc(C)nc4-n4ccnn4)CC3C2)n1` (stereo not shown) [Example 336, [5-(4,6-Dimethyl-pyrimidin-2-yl)-hexahydro-pyrrolo[3,4-c]pyrrol-2-yl]-(6-methyl-2-[1,2,3]triazol-1-yl-pyridin-3-yl)-methanone] was tested. Which Ki did it give?
Its Ki is 0.288 µM.

Which Ki does the source give for `Cc1cc(C)nc(N2CC3CN(C(=O)c4ccc5ccccc5c4Br)CC3C2)n1` (stereo not shown) [Example 337, (1-Bromo-naphthalen-2-yl)-[5-(4,6-dimethyl-pyrimidin-2-yl)-hexahydro-pyrrolo[3,4-c]pyrrol-2-yl]-methanone] here?
Its Ki is 0.513 µM.

For `COc1cc2ccccc2cc1C(=O)N1CC2CN(c3nc(C)cc(C)n3)CC2C1` (stereo not shown) [Example 338, [5-(4,6-Dimethyl-pyrimidin-2-yl)-hexahydro-pyrrolo[3,4-c]pyrrol-2-yl]-(3-methoxy-naphthalen-2-yl)-methanone], which Ki is on record?
Its Ki is 1.6 µM.

`COc1c(C(=O)N2CC3CN(c4nc(C)cc(C)n4)CC3C2)ccc2ccccc12` (stereo not shown) [Example 340, [5-(4,6-Dimethyl-pyrimidin-2-yl)-hexahydro-pyrrolo[3,4-c]pyrrol-2-yl]-(1-methoxy-naphthalen-2-yl)-methanone] was tested. Which Ki did it give?
Its Ki is 1.52 µM.

`Cc1ccnc(-c2cc(F)ccc2C(=O)N2CC3CN(c4nc(C)cc(C)n4)CC3C2)c1` (stereo not shown) [Example 343, (5-(4,6-Dimethylpyrimidin-2-yl)hexahydropyrrolo[3,4-c]pyrrol-2(1H)-yl)(4-fluoro-2-(4-methylpyridin-2-yl)phenyl)methanone] was tested. Which Ki did it give?
The Ki was 0.036 µM.

How did the Ki turn out when `CCCOc1cccnc1C(=O)N1CC2CN(c3nc(C)cc(C)n3)CC2C1` (stereo not shown) [Example 344, (5-(4,6-dimethylpyrimidin-2-yl)hexahydropyrrolo[3,4-c]pyrrol-2(1H)-yl)(3-propoxypyridin-2-yl)methanone] was run?
The Ki was 1.5 µM.

With `Cc1cc(C)nc(N2CC3CN(C(=O)c4ccc(F)cc4-c4ncccc4F)CC3C2)n1` (stereo not shown) [Example 346, (5-(4,6-Dimethylpyrimidin-2-yl)hexahydropyrrolo[3,4-c]pyrrol-2(1H)-yl)(4-fluoro-2-(3-fluoropyridin-2-yl)phenyl)methanone] as the compound, how does the Ki read?
The Ki was 0.025 µM.

How did the Ki turn out when `CCCOc1cccnc1C(=O)N1CC2CN(c3cnc4ccccc4n3)CC2C1` (stereo not shown) [Example 347, (3-Propoxypyridin-2-yl)(5-(quinoxalin-2-yl)hexahydropyrrolo[3,4-c]pyrrol-2(1H)-yl)methanone] was run?
The Ki was 3.1 µM.

With `COc1cccc(OC)c1C(=O)N1CC2CN(c3ccc(C(F)(F)F)cn3)CC2C1` (stereo not shown) [Example 349, 2-[(2,6-Dimethoxyphenyl)carbonyl]-5-[5-(trifluoromethyl)pyridin-2-yl]octahydropyrrolo[3,4-c]pyrrole] as the compound, how does the Ki read?
Its Ki is 10 µM.

For `COc1cccc(OC)c1C(=O)N1CC2CN(c3nc(C)cc(C)n3)CC2C1` (stereo not shown) [Example 351, (2,6-Dimethoxyphenyl)(5-(4,6-dimethylpyrimidin-2-yl)hexahydropyrrolo[3,4-c]pyrrol-2(1H)-yl)methanone], which Ki is on record?
The Ki was 1.2 µM.

How did the Ki turn out when `Cc1cc(C)nc(N2CC3CN(C(=O)c4occc4C)CC3C2)n1` (stereo not shown) [Example 352, (5-(4,6-Dimethylpyrimidin-2-yl)hexahydropyrrolo[3,4-c]pyrrol-2(1H)-yl)(3-methylfuran-2-yl)methanone] was run?
The Ki was 10 µM.

How did the Ki turn out when `Cc1ccoc1C(=O)N1CC2CN(c3ccc(C(F)(F)F)cn3)CC2C1` (stereo not shown) [Example 353, 2-[(3-Methylfuran-2-yl)carbonyl]-5-[5-(trifluoromethyl)pyridin-2-yl]octahydropyrrolo[3,4-c]pyrrole] was run?
The Ki was 10 µM.

`Cc1ccoc1C(=O)N1CC2CN(c3cnc4ccccc4n3)CC2C1` (stereo not shown) [Example 355, (3-Methylfuran-2-yl)(5-(quinoxalin-2-yl)hexahydropyrrolo[3,4-c]pyrrol-2(1H)-yl)methanone] was tested. Which Ki did it give?
The Ki was 10 µM.

same assay, conditions: read-out: OR 2 Ki

Which Ki does the source give for `Cc1nc(N2CC3CN(C(=O)c4ccccc4-c4ncn(C)n4)CC3C2)ncc1Cl` (stereo not shown) [Example 321, 2-(5-Chloro-4-methylpyrimidin-2-yl)-5-{[2-(1-methyl-1H-1,2,4-triazol-3-yl)phenyl]carbonyl}octahydropyrrolo[3,4-c]pyrrole] here?
Its Ki is 0.029 µM.
